Reference: patent publication US20200253877A1, “GEMCABENE, PHARMACEUTICALLY ACCEPTABLE SALTS THEREOF, COMPOSITIONS THEREOF AND METHODS OF USE THEREFOR” (NEUROBO PHARMACEUTICALS, INC., priority 2018, published 2020)
Values belong to the compound of their own block, whether it stands above or below them.

What was measured:
[1] = Aqueous solubility of gemcabene calcium salt forms over 24 hours (HPLC concentration, XRPD form); format: physicochemical; conditions: approximately 25° C.
Description: To each vial, approximately 3 mL to 4 mL water were added and the samples were mixed at ambient temperature (approximately 25° C.) for approximately 24 hours. […] From each vial, samples of the slurries were taken after 1, 4, and 24 hours, which were separated by centrifugation. The solids were separated by centrifugation and analyzed by XRPD for solid form and by HPLC for concentration.

[2] = system: STAM™ mice, a murine model of NASH-HCC; test: Murine STAM model of NASH-HCC: liver histology (H&E, NAFLD Activity Score, Sirius red fibrosis area); format: in vivo, mouse; set-up: key to NAS (mean ± SD) / NAFLD Activity Score: NAS = unweighted sum of steatosis, lobular inflammation, ballooning scores; conditions: for fibrosis area (Sirius red-positive area): all gemcabene Form 1 groups (30, 100, 300 mg/kg)
Text: The present invention further provides methods for reducing a fibrosis score or a nonalcoholic fatty liver disease activity score in a subject, comprising administering to a subject in need thereof an effective amount of a tablet of the invention, gemcabene calcium salt hydrate Crystal Form 4, gemcabene calcium salt hydrate Crystal Form 5 or gemcabene calcium salt hydrate Crystal Form 6. The nonalcoholic fatty liver disease activity score (NAS or NAFLD score) is a composite score that measures changes in NAFLD during therapeutic trials. NAS is a composite score comprised of three components that includes scores for steatosis, lobular inflammation and hepatocyte ballooning (Table 36). NAS is the unweighted sum of the scores for steatosis, lobular inflammation and hepatocyte ballooning. Steatosis grade is quantified as the percentage of hepatocytes that contain fat droplets. The fibrosis stage of the liver is evaluated separately from NAS by histological evaluation of the intensity of Sirius red staining of collagen in the pericentral region of liver lobules.
A study was performed to evaluate the efficacy of gemcabene calcium salt hydrate Crystal Form 1 having a PSD90 of 52 μm as measured by laser light diffraction, in treating non-alcoholic steatosis hepatitis (NASH) in the murine STAM™ model of NASH-HCC.
Briefly, two-day old neonatal C57BL/6 male mice were administered low-dose streptozotocin (STZ), and were subsequently fed a HFC diet from 4 weeks of age. In this model, the mice typically develop liver steatosis and diabetes, reaching steatohepatitis within 3 weeks, followed by cirrhosis within 8 weeks, and carcinoma within 16 weeks. In the current study, mice were administered daily oral gemcabene calcium salt hydrate Crystal Form 1 starting at week 6 of age and were sacrificed at week 9. […] These STAM™ groups were orally administered from week 6 one of the following: water-vehicle, gemcabene calcium salt hydrate Crystal Form 1 at 30, 100 and 300 mg/kg daily, or telmisartan ([…]®) 10 mg/kg daily. […] All groups were sacrificed at week 9. Vehicle, gemcabene calcium salt hydrate Crystal Form 1, or telmisartan were administered by oral gavage once daily.
For Hematoxylin and Eosin (H&E) staining, sections were cut from paraffin blocks of liver tissue prefixed in Bouin's solution and stained with Lillie-Mayer's Hematoxylin (Muto Pure Chemicals Co., Ltd., Japan) and eosin solution (Wako Pure Chemical Industries). NAFLD Activity score (NAS) was calculated according to the criteria of Kleiner, D E. Et al., Hepatology, 2005; 41:1313-1321. To visualize collagen deposition, Bouin's fixed liver sections were stained using picro-Sirius red solution (Waldeck, Germany). For Masson Trichrome staining, the sections were stained with Masson's Trichrome staining Kit (Sigma, USA) according to the manufacturer's instructions.
For quantitative analysis of fibrosis area, bright field images of Sirius red-stained sections were captured around the central vein using a digital camera (DFC295; Leica, Germany) at 200-fold magnification, and the positive areas in 5 fields/section were measured using ImageJ software (National Institute of Health, USA). Samples were analyzed in a blinded fashion.

[3] = Integrated analysis of efficacy from completed clinical studies: LDL-C; format: in vivo, human; conditions: inclusive of all background therapies
Text: Gemcabene calcium salt hydrate Crystal Form 1 given on top of steady-state statins has shown a statin-intensity dependent effect. […] Statins inhibit cholesterol synthesis and upregulate LDL receptor expression to effect LDL-C reduction.

[4] = system: STAM™ mice, a murine model of NASH-HCC; test: Murine STAM model of NASH-HCC: whole blood, plasma and liver biochemistry; conditions: for fasting whole blood glucose concentrations: 3 days prior to termination, 8 h fasting, oral daily wk 6-9; for fasting whole blood glucose concentrations / whole blood glucose levels / liver triglyceride content: gemcabene Form 1 30, 100, 300 mg/kg; for plasma ALP levels: vs vehicle-treated NASH group; for plasma triglyceride concentrations: gemcabene Form 1 30, 100, 300 mg/kg (dose-dependent manner)
[5] = vs vehicle-treated STAM mice, telmisartan 10 mg/kg
[6] = vs vehicle-treated STAM mice, gemcabene Form 1 30 and 300 mg/kg, telmisartan 10 mg/kg
[7] = at termination, gemcabene Form 1 100 and 300 mg/kg, telmisartan 10 mg/kg
[8] = at termination, vs vehicle-treated STAM mice, telmisartan 10 mg/kg
[9] = vs vehicle-treated STAM mice, gemcabene Form 1 100 and 300 mg/kg, telmisartan 10 mg/kg
[10] = 10 mg/kg PO QD, Day 18 after 8 hours of fasting, mean ± SD, n = 8
[11] = 10 mg/kg PO QD, at termination (Day 21), mean ± SD, n = 7

SMILES: CC(C)(CCCCOCCCCC(C)(C)C(=O)O)C(=O)O.[Ca] [6-(5-Carboxy-5-methyl-hexyloxy)-2,2-dimethylhexanoic acid calcium]
change in polymorphic form during the test period (XRPD) ([1]; slurry in water, 24 hours): no change in polymorphic form
change in concentration (HPLC) during the experiment ([1]; slurry in water, sampled 1, 4, 24 hours): small increase
solubility at 1 h ([1]; thermodynamic from solid, water, 1 h, read-out: Conc. (aqueous solubility)): 96.2 mg/mL
solubility at 4 h ([1]; thermodynamic from solid, water, 4 h, read-out: Conc. (aqueous solubility)): 98.3 mg/mL
solubility at 24 h ([1]; thermodynamic from solid, water, 24 h, read-out: Conc. (aqueous solubility)): 99.5 mg/mL
Form (XRPD) of solid in water slurry ([1]; water, 1 h): Form 1
Form (XRPD) of solid in water slurry ([1]; water, 4 h): Form 1
Form (XRPD) of solid in water slurry ([1]; water, 24 h): Form 1
micro- and macro-vesicular hepatic fat deposition, hepatocellular ballooning and inflammatory cell infiltration (H&E) ([2]; STAM mice): diminished
fibrosis area (Sirius red-positive area) [2, 5]: significant decreases
NAFLD Activity Score (NAS) ([2]; vs vehicle-treated STAM mice, gemcabene Form 1 100 mg/kg (trending lower)): no significant difference
steatosis score and ballooning score ([2]; vs vehicle-treated STAM mice, gemcabene Form 1 300 mg/kg): significant decrease
NAFLD Activity Score (NAS) [2, 6]: significant reduction
lobular inflammation and ballooning scores [2, 6]: lower
steatosis (H&E-stained liver sections) [2, 6]: less steatosis
mean LDL-C reduction [3]: about 21%
fasting whole blood glucose concentrations [4, 5]: no significant differences
plasma CRP levels ([4]; STAM mice): decreased
plasma ALP levels [4, 7]: significant increases
plasma creatinine levels ([4]; at termination, vs vehicle-treated STAM group, gemcabene Form 1 300 mg/kg): significant increase
plasma ALT levels ([4]; at termination, vs vehicle-treated STAM mice, gemcabene Form 1 100 mg/kg): significant decrease
whole blood glucose levels [4, 8]: no significant differences
plasma total cholesterol concentrations ([4]; vs vehicle-treated STAM mice, gemcabene Form 1 30 mg/kg): no significant difference
plasma triglyceride concentrations [4, 5]: significant decreases
liver triglyceride content [4, 5]: no significant differences
plasma total cholesterol concentrations [4, 9]: significant increases

plasma ALP levels [4, 7]: significant increases
plasma BUN levels [4, 8]: significant increase
SMILES: CCCc1nc2c(C)cc(-c3nc4ccccc4n3C)cc2n1Cc1ccc(-c2ccccc2C(=O)O)cc1 [telmisartan, reference compound]
Lobular Inflammation score 1: number of mice ([2]; 10 mg/kg PO QD, n = 7): 4
NAS (mean ± SD) ([2]; 10 mg/kg PO QD, n = 7): 2.6 ± 1.0
Steatosis score 0: number of mice ([2]; 10 mg/kg PO QD, n = 7, score 0 = <5%): 1
Lobular Inflammation score 0: number of mice ([2]; 10 mg/kg PO QD, n = 7, score 0 = No foci): 2
Hepatocyte Ballooning score 0: number of mice ([2]; 10 mg/kg PO QD, n = 7, score 0 = None): 2
Steatosis score 1: number of mice ([2]; 10 mg/kg PO QD, n = 7, score 1 = 5-33%): 6
Hepatocyte Ballooning score 1: number of mice ([2]; 10 mg/kg PO QD, n = 7, score 1 = Few balloon cells): 4
Lobular Inflammation score 2: number of mice ([2]; 10 mg/kg PO QD, n = 7, score 2 = 2-4 foci/200x): 1
Hepatocyte Ballooning score 2: number of mice ([2]; 10 mg/kg PO QD, n = 7, score 2 = Many cells/prominent ballooning): 1
NAFLD Activity Score ([2]; 10 mg/kg, STAM mice): 2.6
Sirius red-positive area ([2]; 10 mg/kg, STAM mice): 0.48%
fibrosis area (Sirius red-positive area) [2, 5]: significant decreases
NAFLD Activity Score (NAS) [2, 6]: significant reduction
lobular inflammation and ballooning scores [2, 6]: lower
steatosis (H&E-stained liver sections) [2, 6]: less steatosis
Fasting blood glucose [4, 10]: 742 ± 90 mg/dL
Plasma insulin [4, 10]: 0.16 ± 0.04 ng/mL
Liver free fatty acid [4, 11]: 46.8 ± 10.7 pEq/g liver
Liver hydroxyproline [4, 11]: 0.91 ± 0.12 μg/mg total protein
Liver triglyceride [4, 11]: 31.7 ± 6.4 mg/g liver
Non-fasting blood glucose [4, 11]: 856 ± 62 mg/dL
Plasma ApoC-III [4, 11]: 6.2 ± 0.7 gg/mL
Plasma CRP [4, 11]: 3.0 ± 0.4 gg/mL
Plasma adiponectin [4, 11]: 6.8 ± 0.9 gg/mL
Plasma alanine aminotransferase [4, 11]: 39 ± 15 U/L
Plasma alkaline phosphatase [4, 11]: 567 ± 104 U/L
Plasma aspartate aminotransferase [4, 11]: 121 ± 38 U/L
Plasma blood urea nitrogen [4, 11]: 85.0 ± 17.4 mg/dL
Plasma creatinine [4, 11]: 0.1 ± 0.0 mg/dL
Plasma gamma-glutamyl transferase [4, 11]: 1 ± 0 U/L
Plasma ketone body [4, 11]: 8.11 ± 3.27 m M
Plasma leptin [4, 11]: 2.9 ± 1.1 ng/mL
Plasma total bilirubin [4, 11]: 0.3 ± 0.1 mg/dL
Plasma total cholesterol [4, 11]: 208 ± 19 mg/dL
Plasma triglyceride [4, 11]: 569 ± 256 mg/dL
fasting whole blood glucose concentrations [4, 5]: significant increase
whole blood glucose levels [4, 8]: significant increase
plasma triglyceride concentrations [4, 5]: no significant difference
liver triglyceride content [4, 5]: significant decrease
plasma total cholesterol concentrations [4, 9]: significant increases
